Data reported in patent publication US9381246B2, “Cancer therapy” (TriAct Therapeutics, Inc., priority 2013, dated 2016).
Entries after “also recorded” stand apart in the source; their conditions may differ.

Legend:
IGF1R [1] = target: T1, IGF1R (Homo sapiens, UniProt P08069); assay: IGF-1R tyrosine kinase assay with poly Glu4:Tyr1 (PGT) substrate, Lineweaver-Burke analysis; assay type: biochemical; design: made in house; host or cells: CHO-IGFR cells
Experimental: FIG. 1. […] Tyrosine kinase substrate Glu4: Tyr1 was bound to 96 well plates. […] Phosphorylation of substrate was determined by anti-phosphotyrosine ELISA**.
A Lineweaver-Burke analysis was used to calculate Km and Vmax for this reaction (FIG. 1).
Soluble IGF-1R, partially purified from CHO-IGFR cells were incubated with 10 nM IGF-1 in Kinase Buffer (50 mM, pH 7.4, 150 mM NaCl, 0.1% Triton X-100, 0.1% gelatin, 5 mM MnCl2, 8 mM MgCl2, and 1 mM PMSF) for 1 hr at room temperature (RT). […] Labeled ^32P-ATP (20 μM) was added in the presence of varying concentrations of the tyrosine kinase substrate poly Glu4:Tyr1 (PGT) (0.005 to 4 mg/ml). The reaction was stopped after 30 min at 22° C. by blotting 40 μl of the reaction mixture onto Whatman 3 MM papers. Filter papers were air dried and then subjected to the following washing protocol in 10% TCA with 10 mM Na4P2O7: 15 min at 4° C., 15 min at 20° C., 5 min boiling, 5 min boiling, followed by a short rinse with acetone. The filter papers were then allowed to air dry completely. ^32P incorporation into the substrate was determined by liquid scintillation counting.
Target sequence in this assay (P08069 741-1367 limits assumed): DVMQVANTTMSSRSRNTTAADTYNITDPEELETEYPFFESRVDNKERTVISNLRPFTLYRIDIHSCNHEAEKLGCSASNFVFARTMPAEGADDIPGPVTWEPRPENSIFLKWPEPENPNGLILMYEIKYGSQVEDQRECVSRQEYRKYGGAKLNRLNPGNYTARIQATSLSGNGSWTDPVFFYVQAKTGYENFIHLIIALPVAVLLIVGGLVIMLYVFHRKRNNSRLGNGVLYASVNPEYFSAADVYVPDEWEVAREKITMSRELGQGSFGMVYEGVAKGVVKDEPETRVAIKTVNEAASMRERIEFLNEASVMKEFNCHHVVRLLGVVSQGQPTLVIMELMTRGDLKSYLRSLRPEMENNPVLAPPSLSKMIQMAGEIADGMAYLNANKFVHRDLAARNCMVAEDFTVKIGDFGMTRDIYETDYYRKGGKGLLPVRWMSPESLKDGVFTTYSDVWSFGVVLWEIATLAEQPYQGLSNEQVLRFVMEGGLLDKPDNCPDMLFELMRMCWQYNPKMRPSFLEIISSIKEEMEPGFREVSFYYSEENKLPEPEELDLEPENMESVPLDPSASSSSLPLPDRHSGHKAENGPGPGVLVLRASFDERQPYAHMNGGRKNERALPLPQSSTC
Target sequence in this assay (P08069 31-736 partner limits assumed): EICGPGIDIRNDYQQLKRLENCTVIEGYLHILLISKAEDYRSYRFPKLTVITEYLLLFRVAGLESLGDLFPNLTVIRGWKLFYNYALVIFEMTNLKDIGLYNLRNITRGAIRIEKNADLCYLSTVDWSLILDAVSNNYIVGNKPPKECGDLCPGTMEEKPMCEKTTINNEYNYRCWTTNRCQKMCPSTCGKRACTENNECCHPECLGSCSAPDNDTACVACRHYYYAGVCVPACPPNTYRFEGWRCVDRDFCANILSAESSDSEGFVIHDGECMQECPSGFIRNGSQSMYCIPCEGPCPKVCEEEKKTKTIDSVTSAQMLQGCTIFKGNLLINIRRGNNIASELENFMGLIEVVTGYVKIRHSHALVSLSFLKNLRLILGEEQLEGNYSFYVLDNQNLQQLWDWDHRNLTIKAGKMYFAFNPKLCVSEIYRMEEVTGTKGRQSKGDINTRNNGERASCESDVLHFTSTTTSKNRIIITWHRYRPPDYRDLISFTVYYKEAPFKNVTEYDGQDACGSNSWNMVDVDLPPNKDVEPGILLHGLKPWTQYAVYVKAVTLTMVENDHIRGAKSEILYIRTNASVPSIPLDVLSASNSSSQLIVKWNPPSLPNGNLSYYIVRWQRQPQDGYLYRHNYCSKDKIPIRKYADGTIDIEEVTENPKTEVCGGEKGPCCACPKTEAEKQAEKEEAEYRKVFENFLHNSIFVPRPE
Target sequence in this assay (P05019 49-118 partner limits assumed): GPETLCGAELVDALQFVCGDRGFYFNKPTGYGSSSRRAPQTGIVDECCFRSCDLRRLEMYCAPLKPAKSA

Sprague Dawley rats = assay: 28-day multi-dose oral toxicity, rats; assay type: in vivo, rat
Experimental: A rat 28-day multi-dose toxicology assessment was conducted at 15, 150, or 500 mg/kg/day.

[2] = Phase 1b and 2a clinical data; assay type: in vivo
From the text: It provides a competitive advantage over previously described compounds in that the present inventors have identified a novel proposed mechanism of action (MOA), which has been market validated (EGFR & cMet) and clinically validated (IGFR). […] Dose selection has also been determined.

IGF-IR = assay: Total protein levels over time-course (FIG. 9); assay type: cell-based; conditions: 2, 4, 8 and 24 hours after treatment, compared to control
Met = assay: Total protein levels over time-course (FIG. 9); assay type: cell-based; conditions: 2, 4, 8 and 24 hours after treatment, compared to control
c-met = c-met (Homo sapiens, UniProt P08581); assay: c-met kinase inhibition (FIG. 8); assay type: biochemical; conditions: data from 3 sources
NSCLC xenograft = NSCLC xenograft tumor growth (FIG. 16); assay type: in vivo; conditions: 3 weeks post-tumor challenge
From the text: FIG. 16. […] Tumor volume is shown (y axis) at […], 2.5 and 3 weeks post tumor challenge (x axis).

[3] = system: New Zealand white rabbits; conditions: rabbit, in vivo, po, 14 days
xenografts of Table 3 = assay: Efficacy in the xenografts of Table 3; assay type: in vivo; conditions: NCI-H209, AsPC-1, HPAC, SW850, MDA-MB435, Her-2 over expressing breast, LoVo, C4-I, neuroblastoma, NCI-H1264
breast xenograft = assay: Breast xenograft tumor growth (FIG. 17); assay type: in vivo
From the text: FIG. 17. […] Tumor volume is shown (y axis) at various time days post tumor challenge (x axis).

in vivo [4] = conditions: New Zealand white, rabbit, po
EGFR [5] = target: EGFR (Homo sapiens, UniProt P00533); assay: EGFR kinase inhibition / substrate phosphorylation (FIG. 6, 7); assay type: biochemical
[6] = system: Additional NSCLC cell lines; assay: Growth of additional NSCLC cell lines (FIG. 12); assay type: cell-based; conditions: growth compared to untreated cells
From the text: FIG. 12. […] Growth is shown on the y axis compared to untreated cells.

[7] = system: second pancreatic xenograft; assay: Second pancreatic xenograft tumor growth (FIG. 19); assay type: in vivo
From the text: FIG. 19. […] Tumor volume is shown (y axis) at various time days post tumor challenge (x axis).

[8] = system: Tarceva® resistant cell lines (Kras mutants, EGFR mutants, T790M mutation); assay: Growth of Tarceva resistant cell lines (FIG. 11); assay type: cell-based; conditions: growth compared to untreated cells
From the text: FIG. 11. […] Growth is shown on the y axis compared to untreated cells. A description of the mutations in the cell lines are identified below in Table 1.

H1975 NSCLC cells = assay: Soft agar colony formation; assay type: cell-based; conditions: H1975, Iressa®-resistant NSCLC cells (T790M), 11 days
Experimental: FIG. 10. […] Colony formation was determined and results reported normalized to control values as illustrated in FIG. 10.
Colony formation was determined and results reported normalized to control values as illustrated in FIG. 10.

EGFR [9] = assay: Total protein levels over time-course (FIG. 9); assay type: cell-based; conditions: 2, 4, 8 and 24 hours after treatment, compared to control
HER2 = assay: Total protein levels over time-course (FIG. 9); assay type: cell-based; conditions: 2, 4, 8 and 24 hours after treatment, compared to control
Beagle dogs [10] = assay: Multi-dose toxicity (dose escalation), dogs; assay type: in vivo
KDR (VEGFR2) = KDR (VEGFR2) (Homo sapiens, UniProt P35968); assay: KDR (VEGFR2) kinase inhibition; assay type: biochemical; conditions: data from 3 sources
From the text: The inhibition of these targets appears to be via a mechanism of action that is distinct from approved tyrosine kinase inhibitors (TKIs).

IGF1R [11] = target: T1, IGF1R; assay: IGF1R kinase inhibition (FIG. 7); assay type: biochemical; conditions: data from 3 sources
in vivo [12] = conditions: CR: 1CD BR, rat, po
Beagle dogs [13] = assay: Multi-dose oral toxicity, dogs; assay type: in vivo, dog
Experimental: A dog 28-day multi-dose toxicology assessment was also conducted.

pancreatic xenograft = assay: Pancreatic xenograft tumor growth (FIG. 18); assay type: in vivo
From the text: FIG. 18. […] Tumor volume is shown (y axis) at various time days post tumor challenge (x axis).

IGF1R [14] = target: T1, IGF1R; assay: ATP binding competition assay
Experimental: Next, competition with ATP was determined directly by employing an assay previously validated to quantify the Km for small molecule kinase inhibitors compete for ATP binding to various kinases (Goldstein et al. 2008).
Target sequence in this assay (P08069 999-1274 limits assumed): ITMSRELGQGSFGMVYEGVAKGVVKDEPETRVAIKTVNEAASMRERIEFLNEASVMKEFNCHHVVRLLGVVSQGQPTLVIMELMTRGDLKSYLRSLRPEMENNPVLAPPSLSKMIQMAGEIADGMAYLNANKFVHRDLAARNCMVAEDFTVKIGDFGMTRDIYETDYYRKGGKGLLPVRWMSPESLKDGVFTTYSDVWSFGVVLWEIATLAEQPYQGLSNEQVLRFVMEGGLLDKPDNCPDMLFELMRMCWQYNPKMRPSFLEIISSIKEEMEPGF

[15] = dog 28-day multi-dose toxicology assessment

EGFR (Homo sapiens, UniProt P00533), sequence (P00533 25-1210): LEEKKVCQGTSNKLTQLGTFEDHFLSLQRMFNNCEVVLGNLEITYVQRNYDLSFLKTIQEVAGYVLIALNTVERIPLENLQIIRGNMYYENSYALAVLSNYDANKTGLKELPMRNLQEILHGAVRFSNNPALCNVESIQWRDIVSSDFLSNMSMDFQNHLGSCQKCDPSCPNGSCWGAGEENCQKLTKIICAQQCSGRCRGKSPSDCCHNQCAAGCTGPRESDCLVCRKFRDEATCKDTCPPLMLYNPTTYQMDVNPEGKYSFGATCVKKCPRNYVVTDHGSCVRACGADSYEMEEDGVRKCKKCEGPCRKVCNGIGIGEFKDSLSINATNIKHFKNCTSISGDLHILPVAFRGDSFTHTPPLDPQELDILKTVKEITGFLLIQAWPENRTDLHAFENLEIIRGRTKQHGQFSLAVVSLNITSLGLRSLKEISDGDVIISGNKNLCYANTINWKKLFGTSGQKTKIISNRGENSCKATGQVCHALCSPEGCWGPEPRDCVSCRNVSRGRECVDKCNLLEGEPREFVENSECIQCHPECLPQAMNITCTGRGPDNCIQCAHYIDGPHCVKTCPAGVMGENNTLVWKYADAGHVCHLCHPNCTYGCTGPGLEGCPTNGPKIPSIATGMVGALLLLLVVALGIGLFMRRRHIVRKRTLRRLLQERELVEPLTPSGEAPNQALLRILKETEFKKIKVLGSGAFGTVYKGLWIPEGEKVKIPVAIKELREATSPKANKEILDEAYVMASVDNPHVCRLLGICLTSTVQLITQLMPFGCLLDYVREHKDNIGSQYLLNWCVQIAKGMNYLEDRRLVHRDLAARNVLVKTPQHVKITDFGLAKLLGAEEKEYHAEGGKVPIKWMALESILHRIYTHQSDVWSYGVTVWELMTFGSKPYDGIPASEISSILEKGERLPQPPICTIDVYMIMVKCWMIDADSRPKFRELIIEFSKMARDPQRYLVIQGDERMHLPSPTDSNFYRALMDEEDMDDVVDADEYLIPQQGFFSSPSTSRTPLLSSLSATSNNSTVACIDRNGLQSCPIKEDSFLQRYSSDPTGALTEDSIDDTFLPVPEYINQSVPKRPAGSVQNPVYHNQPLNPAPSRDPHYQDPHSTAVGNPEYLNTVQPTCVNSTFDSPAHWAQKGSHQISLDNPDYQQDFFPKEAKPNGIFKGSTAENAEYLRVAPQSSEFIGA
c-met, sequence (P08581 25-1390): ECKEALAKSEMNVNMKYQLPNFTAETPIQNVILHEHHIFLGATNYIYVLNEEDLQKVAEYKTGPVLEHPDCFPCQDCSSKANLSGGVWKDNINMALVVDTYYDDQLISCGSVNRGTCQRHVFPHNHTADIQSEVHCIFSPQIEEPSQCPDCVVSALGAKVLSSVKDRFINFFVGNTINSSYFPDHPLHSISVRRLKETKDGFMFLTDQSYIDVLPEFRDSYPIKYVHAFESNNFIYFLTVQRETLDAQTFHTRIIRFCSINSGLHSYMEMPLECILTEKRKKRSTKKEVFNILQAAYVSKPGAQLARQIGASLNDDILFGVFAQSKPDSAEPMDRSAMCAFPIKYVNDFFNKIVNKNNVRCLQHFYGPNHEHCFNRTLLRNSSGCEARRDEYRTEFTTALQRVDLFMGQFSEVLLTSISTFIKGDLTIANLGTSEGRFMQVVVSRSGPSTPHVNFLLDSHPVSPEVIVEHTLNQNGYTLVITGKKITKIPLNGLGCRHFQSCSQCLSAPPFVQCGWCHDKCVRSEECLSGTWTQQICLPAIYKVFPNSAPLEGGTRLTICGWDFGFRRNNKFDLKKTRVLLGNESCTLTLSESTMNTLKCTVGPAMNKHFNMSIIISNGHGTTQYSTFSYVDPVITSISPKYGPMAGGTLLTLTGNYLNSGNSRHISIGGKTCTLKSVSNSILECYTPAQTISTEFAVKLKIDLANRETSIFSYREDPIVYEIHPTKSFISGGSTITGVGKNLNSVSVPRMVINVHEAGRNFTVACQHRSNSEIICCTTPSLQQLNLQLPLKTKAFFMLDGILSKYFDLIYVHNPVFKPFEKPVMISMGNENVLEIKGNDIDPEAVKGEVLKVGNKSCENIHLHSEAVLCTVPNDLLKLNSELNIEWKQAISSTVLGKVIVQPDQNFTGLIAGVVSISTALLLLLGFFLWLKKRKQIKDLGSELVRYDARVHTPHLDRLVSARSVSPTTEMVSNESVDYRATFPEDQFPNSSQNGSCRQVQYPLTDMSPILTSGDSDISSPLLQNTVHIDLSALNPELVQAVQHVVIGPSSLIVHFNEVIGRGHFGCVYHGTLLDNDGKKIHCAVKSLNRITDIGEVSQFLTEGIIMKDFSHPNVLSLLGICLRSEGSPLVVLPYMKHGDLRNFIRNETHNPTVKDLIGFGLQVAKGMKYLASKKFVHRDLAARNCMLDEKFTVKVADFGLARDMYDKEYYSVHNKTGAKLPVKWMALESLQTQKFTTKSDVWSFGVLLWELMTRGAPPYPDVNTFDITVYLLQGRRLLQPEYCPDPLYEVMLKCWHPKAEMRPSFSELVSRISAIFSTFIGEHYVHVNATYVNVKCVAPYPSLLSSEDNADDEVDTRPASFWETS

CC(Cc1ccc(O)c(O)c1)C(C)Cc1ccc(O)c(O)c1 (centres unmarked) [NDGA, nordihydroguaiaretic acid]
Mechanism of action of IGF-1R inhibition (IGF1R [1]; varying PGT substrate, 20 μg/ml NDGA): substrate competition | Vmax (IGF1R [1]; with NDGA (+TT100), 10 nM IGF-1, 20 μM ATP): 2.0 pmol/min | Findings at 150 and 500 mg/kg/day (Sprague Dawley rats; 150 and 500 mg/kg/day, 28 days, listed as TT-100): Stomach and duodenal hypertrophy/alterations; also recorded: adverse events | No-effect dose level (Sprague Dawley rats; oral (gavage), once daily for 28 days): 15 mg/kg/day | Safety and tolerability [2]: safe and well tolerated | Total protein level of IGF-IR (IGF-IR): reduction in total protein levels | Total protein level of Met (Met): reduction in total protein levels | Inhibition of cMet (c-met): inhibition | Tumor growth (tumor volume) compared to control (NSCLC xenograft): inhibit tumor growth | No-effect level [3]: dose of 1000 mg/kg | Efficacy in xenografts (xenografts of Table 3): efficacy was shown | Tumor growth (tumor volume) compared to control (breast xenograft): inhibited growth | LD50 at 14 days (in vivo [4]; female): 1650 mg/kg | LD50 at 14 days (in vivo [4]; male): 2500 mg/kg | Inhibition of EGFR / substrate phosphorylation (EGFR [5]): inhibits substrate phosphorylation; also recorded: inhibition | Sensitivity of growth to NDGA [6]: sensitive | Tumor growth (tumor volume) compared to control [7]: inhibited growth | Sensitivity of growth to NDGA [8]: sensitive | Activity on colony formation in soft agar (H1975 NSCLC cells): active | Total protein level of EGFR (EGFR [9]): reduction in total protein levels | Total protein level of HER2 (HER2): reduction in total protein levels | Tolerability in the repeated dose phase (Beagle dogs [10]; dog, in vivo, po, 300 mg/kg/day): fairly well tolerated, | Clinical findings in the escalation phase (Beagle dogs [10]; dogs, single oral (capsule) doses of 600 and 1200 mg/kg): Significant emesis, | Inhibition of KDR (VEGFR2) (KDR (VEGFR2)): inhibition | Inhibition of IGF1R (IGF1R [11]): inhibition | LD50 at 14 days (in vivo [12]): > 5000 mg/kg | Necropsy findings (Beagle dogs [13]; [15]): intestinal mucosal reddening | No observable effect level (NOEL) (Beagle dogs [13]; [15]): 60 mg/kg/day | Tolerability of all of the other doses (Beagle dogs [13]; dog, in vivo): well-tolerated in this | Tumor growth (tumor volume) compared to control (pancreatic xenograft): inhibited growth | Amount of ATP bound to IGF-1R (IGF1R [14]; 30 μM NDGA): unchanged | Interference with binding of a labeled ATP analog to recombinant IGF-1R (IGF1R [14]; any concentration of NDGA up to 100 μM): did not interfere; also recorded: does not interfere
